We go through 17 molecules from article PMC6864762, “Angiotensin-I-Converting Enzyme Inhibitory Activity of Coumarins from Angelica decursiva” (Molecules, 2019).

For orientation: IC50 means the point on the concentration scale where inhibition reaches its midpoint. Read a low IC50 as greater potency.

The target of experiment [1] is T1, ACE (Oryctolagus cuniculus, UniProt P12822).
T1 sequence (P12822 34-1310): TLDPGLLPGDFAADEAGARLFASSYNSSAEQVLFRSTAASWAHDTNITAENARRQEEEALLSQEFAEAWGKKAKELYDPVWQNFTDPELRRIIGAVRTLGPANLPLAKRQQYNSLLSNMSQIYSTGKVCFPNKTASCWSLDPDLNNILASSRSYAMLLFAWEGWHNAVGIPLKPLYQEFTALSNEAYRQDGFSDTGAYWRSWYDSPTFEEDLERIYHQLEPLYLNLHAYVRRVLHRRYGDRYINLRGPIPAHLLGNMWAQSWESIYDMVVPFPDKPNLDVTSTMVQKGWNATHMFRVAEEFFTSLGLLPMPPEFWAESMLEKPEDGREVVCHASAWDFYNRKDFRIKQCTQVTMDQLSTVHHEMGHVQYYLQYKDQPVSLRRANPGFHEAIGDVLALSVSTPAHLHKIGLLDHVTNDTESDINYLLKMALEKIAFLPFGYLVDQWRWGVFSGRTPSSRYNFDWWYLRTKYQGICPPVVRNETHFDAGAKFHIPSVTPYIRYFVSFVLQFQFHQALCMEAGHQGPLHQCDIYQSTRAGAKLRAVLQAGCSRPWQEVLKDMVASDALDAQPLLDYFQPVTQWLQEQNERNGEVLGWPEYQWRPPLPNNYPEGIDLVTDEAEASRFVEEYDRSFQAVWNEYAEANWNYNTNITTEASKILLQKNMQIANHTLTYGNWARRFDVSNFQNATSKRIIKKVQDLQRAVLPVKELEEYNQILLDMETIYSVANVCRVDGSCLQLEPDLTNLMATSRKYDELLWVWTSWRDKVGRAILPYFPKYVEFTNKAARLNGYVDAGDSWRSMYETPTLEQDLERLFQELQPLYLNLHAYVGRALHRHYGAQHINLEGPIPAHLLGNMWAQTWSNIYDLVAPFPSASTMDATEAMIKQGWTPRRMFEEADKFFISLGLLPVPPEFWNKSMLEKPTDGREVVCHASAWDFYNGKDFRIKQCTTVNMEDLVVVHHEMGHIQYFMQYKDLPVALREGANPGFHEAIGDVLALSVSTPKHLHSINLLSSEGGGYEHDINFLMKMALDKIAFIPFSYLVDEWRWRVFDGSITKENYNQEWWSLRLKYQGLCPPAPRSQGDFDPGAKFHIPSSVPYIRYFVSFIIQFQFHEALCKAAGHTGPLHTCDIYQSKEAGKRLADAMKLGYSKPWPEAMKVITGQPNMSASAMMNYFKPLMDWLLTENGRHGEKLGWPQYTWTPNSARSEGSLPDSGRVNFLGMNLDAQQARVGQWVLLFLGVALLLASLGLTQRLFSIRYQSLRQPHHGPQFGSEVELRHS
The experiment is described as follows: ACE inhibitory activity assay with FAPGG as substrate. The settings on record: for Inhibitory effect on ACE (in words): structure–activity discussion of Table 2.
Description: The ACE inhibitory activity of 18 compounds was conducted according to Hyun et al. [8] and modified to use FAPGG as the substrate. In brief, FAPGG (0.5 mM) and various concentrations of the samples were completely dissolved in 50 mM Tris–HCl buffer (pH 7.5).

In experiment [2] the test system is ACE. Also noted: method as in earlier work. The settings on record: ref 25 (Hyun et al.); cited from earlier work.
The target of experiment [3] is T1, ACE. The experiment is described as follows: Enzyme kinetics of ACE inhibition (Lineweaver–Burk and secondary plots). In kind it is biochemical, rabbit. On the set-up: ACE (1 Unit, rabbit lung); purchased Sigma Chemical Company (St Louis, MO, USA); host or cells: rabbit lung (tissue-derived). As to conditions: for Type of Inhibition: Lineweaver–Burk plot and secondary plot, FAPGG 0.1–0.5 mM; for Ki: from secondary plot of slope (Km,app/Vmax,app) versus inhibitor. The method, then:
All chemicals and solvents used for column chromatography were of reagent grade and purchased from commercial sources, unless otherwise stated.
To determine the inhibition mechanisms, ACE inhibition was evaluated by monitoring the effects of different concentrations of substrate […]. The reaction mixture consisted of different concentrations of FAPGG (0.1–0.5 mM), as the substrate, and ACE in 50 mM Tris–HCl buffer. Several concentrations of each sample were added to the reaction mixture. The tested concentrations of coumarins are as follows: 12 (0, 2.5, 5, and 10 µM); 13 (0, 2.5, 5, and 10 µM); 15 (0, 1.28, 2.56, and 5.12 µM). Inhibition constants (Ki) were determined by interpretation of the secondary plots from Lineweaver–Burk plot.

`CC(C)(O[C@@H]1O[C@H](CO)[C@@H](O)[C@H](O)[C@H]1O)[C@H]1Cc2cc3ccc(=O)oc3cc2O1` [Compound 1, nodakenin] registered an IC50 against ACE [1] of 112.5 ± 0.71 µM. Also, the “ACE inhibitory activity (in words)” value with ACE [2] is “promising ACE inhibitory activity”.

As to `CC(C)(O)[C@H]1Cc2cc3ccc(=O)oc3cc2O1` [Compound 2, nodakenetin], on ACE [1], 102.3 ± 0.29 µM corresponded to half-maximal inhibition (IC50).

Molecule `CC(C)(OC1OC(CO)C(O)C(O)C1O)C1Cc2cc3ccc(=O)oc3c(O)c2O1` (stereo not drawn) [Compound 3, isorutarine] displayed an IC50 at ACE [1] of 68.36 ± 0.27 µM.

On to `O=c1ccc2ccc(O)cc2o1` [Compound 4, umbelliferone], for which the “ACE inhibitory activity (in words)” value with ACE [2] is “promising ACE inhibitory activity”.

Take `O=C(O)c1cc2ccc(=O)oc2cc1O` [Compound 5, umbelliferone 6-carboxylic acid]: on ACE [1], it took 156.1 ± 0.41 µM to reach half-maximal inhibition (IC50) and the “Inhibitory effect on ACE (in words)” value is “moderate inhibitory effects”. Besides, the “ACE inhibitory activity (in words)” value in the experiment on ACE [2] is on record as “promising ACE inhibitory activity”.

`O=C(O)c1ccc(O)cc1` [Compound 6, para-hydroxy benzoic acid]: 492.4 ± 0.89 µM corresponded to half-maximal inhibition at ACE [1] (IC50).

Regarding `CC(C)c1cc2cc3ccc(=O)oc3cc2o1` [Compound 8, 2′-isopropyl psoralene], at ACE [1], the IC50 worked out at 311.1 ± 0.33 µM and the “Inhibitory effect on ACE (in words)” value is recorded as “weak activity”.

On ACE [1], `C/C=C(\C)C(=O)O[C@@H]1c2c(ccc3ccc(=O)oc23)OC(C)(C)[C@@H]1OC(C)=O` [Compound 9, 3′(R)-O-acetyl-4′(S)-O-tigloylkhellactone] displayed an IC50 of 89.36 ± 0.38 µM.

The molecule `C/C=C(/C)C(=O)O[C@@H]1c2c(ccc3ccc(=O)oc23)OC(C)(C)[C@@H]1OC(C)=O` [Compound 10, cis-3′-acetyl-4′-angeloylkhellactone] had an IC50 at ACE [1] of 71.48 ± 0.47 µM.

Regarding `CC1(C)Oc2cc3oc(=O)ccc3cc2C[C@@H]1O` [Compound 11, decursinol], the half-maximal inhibitory concentration (IC50) on ACE [1] was determined as 18.3 ± 0.61 µM.

In the case of `C/C=C(/C)C(=O)O[C@H]1[C@H](O)c2cc3ccc(=O)oc3cc2OC1(C)C` [Compound 12, 4′-hydroxy Pd-C-III], on ACE [3], the “Type of Inhibition” value was “competitive inhibition” and the Ki was 1.98 µM. Moreover, the IC50 on ACE [1] is 9.41 ± 0.69 µM.

In the case of `CC(C)=CC(=O)O[C@H]1[C@H](O)c2cc3ccc(=O)oc3cc2OC1(C)C` [Compound 13, Pd-C-I], on ACE [3], the “Type of Inhibition” value is “competitive inhibition” and the Ki was 2.35 µM. Besides, at ACE [1], the IC50 was 6.75 ± 0.43 µM.

In the case of `CC(C)=CC(=O)O[C@@H]1c2cc3ccc(=O)oc3cc2OC(C)(C)[C@H]1OC(=O)C=C(C)C` [Compound 14, decursidin], the IC50 against ACE [1] is 20 ± 0.79 µM.

On to `CC1(C)Oc2cc3oc(=O)ccc3cc2[C@@H](O)[C@@H]1O` [Compound 15, (+)-trans-decursidinol], for which, on ACE [3], the “Type of Inhibition” value is “competitive inhibition” and the Ki stood at 0.59 µM. The IC50 at ACE [1] turned out to be 4.68 ± 0.22 µM.

Take `CC(C)=CC(=O)O[C@@H]1c2cc3ccc(=O)oc3cc2OC(C)(C)[C@H]1O` [Compound 16, Pd-C-II]: inhibition against ACE [1] was half-maximal at 12.4 ± 0.27 µM (IC50).

As for `C/C=C(/C)C(=O)O[C@H]1[C@H](OC(C)=O)c2cc3ccc(=O)oc3cc2OC1(C)C` [Compound 17, Pd-C-III], on ACE [1], the IC50 was 15.2 ± 0.39 µM.

In the case of `CO[C@@H]1c2cc3ccc(=O)oc3cc2OC(C)(C)[C@H]1OC(=O)C=C(C)C` [Compound 18, 4′-methoxy Pd-C-I], at ACE [1], the midpoint of inhibition, the IC50, lay at 16 ± 0.92 µM.
